Measured values taken from US10131652B2, “Pyrimidinyloxy benzene derivatives as herbicides” (E. I. DU PONT DE NEMOURS AND COMPANY, priority 2014, dated 2018).
Where two headings read alike, the source gives them in different places.

Assays:
Assay in all cases: Test F pre-/postemergence plant response
Assay type in all cases: in vivo
[1] = system: surinam grass (Brachiaria decumbens); conditions: Urochloa decumbens, pre-emergence, scale 0 to 100, read-out: Plant response rating, Surinam Grass
Procedure, shortened: (§1)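 Seeds were sown in silt loam and sprayed preemergence; in parallel, plants at 2–18 cm (1- to 4-leaf) received postemergence sprays. Test chemicals were in a non-phytotoxic solvent with surfactant. After 14–21 days in the greenhouse, injury was rated visually against controls on a 0–100 scale (100 = complete control).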

[2] = system: large (Lg) crabgrass (Digitaria sanguinalis); conditions: Digitaria sanguinalis, pre-emergence, scale 0 to 100, read-out: Plant response rating, Crabgrass, Large
Procedure, shortened: as §1

[3] = system: corn (Zea mays); conditions: Zea mays, scale 0 to 100
Procedure, shortened: as §1

[4] = system: soybean (Glycine max); conditions: Glycine max, scale 0 to 100, read-out: Plant response rating, Soybean
Procedure, shortened: as §1

[5] = system: goosegrass (Eleusine indica); conditions: Eleusine indica, pre-emergence, scale 0 to 100, read-out: Plant response rating, Goosegrass
Procedure, shortened: as §1

[6] = system: Brazilian crabgrass (Digitaria horizontalis); conditions: Digitaria horizontalis, scale 0 to 100, read-out: Plant response rating, Crabgrass, Brazil
Procedure, shortened: as §1

[7] = system: Italian ryegrass (Lolium multiflorum); conditions: Lolium multiflorum, scale 0 to 100, read-out: Plant response rating, Ryegrass, Italian; for pest or weed control at 16 g/ha: 16 g ai/ha; for pest or weed control at 31 g/ha: 31 g ai/ha; for pest or weed control at 125 g/ha: 125 g ai/ha
Procedure, shortened: as §1

[8] = system: wild poinsettia (Euphorbia heterophylla); conditions: Euphorbia heterophylla, scale 0 to 100, read-out: Plant response rating, Poinsettia, Wild
Procedure, shortened: as §1

[9] = system: ragweed (common ragweed, Ambrosia elatior); conditions: Ambrosia artemisiifolia, pre-emergence, scale 0 to 100, read-out: Plant response rating, Ragweed
Procedure, shortened: as §1

[10] = system: kochia (Kochia scoparia); conditions: Bassia scoparia, pre-emergence, scale 0 to 100, read-out: Plant response rating, Kochia
Procedure, shortened: as §1

[11] = system: hairy beggarticks (Bidens pilosa); conditions: Bidens pilosa, scale 0 to 100, read-out: Plant response rating, Beggarticks
Procedure, shortened: as §1

[12] = system: field bindweed (Convolvulus arvensis); conditions: Convolvulus arvensis, scale 0 to 100, read-out: Plant response rating, Field Bindweed
Procedure, shortened: as §1

[13] = system: nightshade (eastern black nightshade, Solanum ptycanthum); conditions: Solanum, pre-emergence, scale 0 to 100, read-out: Plant response rating, Nightshade
Procedure, shortened: as §1

[14] = system: yellow nutsedge (Cyperus esculentus); conditions: Cyperus, pre-emergence, scale 0 to 100, read-out: Plant response rating, Nutsedge, Yellow
Procedure, shortened: as §1

[15] = system: fall panicum (Panicum dichotomiflorum); conditions: Panicum dichotomiflorum, scale 0 to 100, read-out: Plant response rating, Panicum, Fall
Procedure, shortened: as §1

[16] = system: velvetleaf (Abutilon theophrasti); conditions: Abutilon theophrasti, pre-emergence, scale 0 to 100, read-out: Plant response rating, Velvetleaf
Procedure, shortened: as §1

[17] = post-emergence, 8 g ai/ha Postemergence
[18] = post-emergence, 16 g ai/ha Postemergence
[19] = post-emergence, 31 g ai/ha Postemergence
[20] = post-emergence, 62 g ai/ha Postemergence
[21] = post-emergence, 125 g ai/ha Postemergence
[22] = pre-emergence, 8 g ai/ha Preemergence
[23] = pre-emergence, 16 g ai/ha Preemergence
[24] = pre-emergence, 31 g ai/ha Preemergence
[25] = pre-emergence, 62 g ai/ha Preemergence
[26] = pre-emergence, 125 g ai/ha Preemergence

`FC(F)(F)c1cc(-c2ccccc2Oc2ncc(Cl)cn2)no1` [Compound 200, 5-chloro-2-[2-[5-(trifluoromethyl)-3-isoxazolyl]phenoxy]pyrimidine] showed a pest or weed control at 8 g/ha ([1]; 8 g ai/ha Preemergence) of 0%, a pest or weed control at 16 g/ha ([1]; 16 g ai/ha Preemergence) of 0% and a pest or weed control at 31 g/ha ([1]; 31 g ai/ha Preemergence) of 0%. It also gave a pest or weed control at 125 g/ha ([1]; 125 g ai/ha Preemergence) of 35%, a pest or weed control at 62 g/ha ([1]; Preemergence) of 10% and a pest or weed control at 8 g/ha ([2]; 8 g ai/ha Preemergence) of 0%. For the same molecule, the pest or weed control at 16 g/ha ([2]; 16 g ai/ha Preemergence) was 50%, the pest or weed control at 31 g/ha ([2]; 31 g ai/ha Preemergence) was 85% and the pest or weed control at 62 g/ha ([2]; 62 g ai/ha Preemergence) was 95%. The pest or weed control at 125 g/ha ([2]; 125 g ai/ha Preemergence) was 100%, the Corn plant response rating (crop injury, 0 = no effect, 100 = complete kill) at 8 g/ha [3, 17] was 0% and the Corn plant response rating (crop injury, 0 = no effect, 100 = complete kill) at 16 g/ha [3, 18] was 0%. It also gave a Corn plant response rating (crop injury, 0 = no effect, 100 = complete kill) at 31 g/ha [3, 19] of 10%, a Corn plant response rating (crop injury, 0 = no effect, 100 = complete kill) at 62 g/ha [3, 20] of 20% and a Corn plant response rating (crop injury, 0 = no effect, 100 = complete kill) at 125 g/ha [3, 21] of 25%. For the same molecule, the Corn plant response rating (crop injury, 0 = no effect, 100 = complete kill) at 8 g/ha [3, 22] was 0%, the Corn plant response rating (crop injury, 0 = no effect, 100 = complete kill) at 16 g/ha [3, 23] was 0% and the Corn plant response rating (crop injury, 0 = no effect, 100 = complete kill) at 31 g/ha [3, 24] was 0%. The Corn plant response rating (crop injury, 0 = no effect, 100 = complete kill) at 62 g/ha [3, 25] was 0%, the Corn plant response rating (crop injury, 0 = no effect, 100 = complete kill) at 125 g/ha [3, 26] was 0% and the plant injury at 8 g/ha [4, 17] was 15%. The plant injury at 16 g/ha [4, 18] was 20%, the plant injury at 31 g/ha [4, 19] was 40% and the plant injury at 62 g/ha [4, 20] was 65%. It also gave a plant injury at 125 g/ha [4, 21] of 90%, a plant injury at 8 g/ha [4, 22] of 0% and a plant injury at 16 g/ha [4, 23] of 0%. It also gave a plant injury at 31 g/ha [4, 24] of 20%, a plant injury at 125 g/ha [4, 26] of 50% and a plant injury at 62 g/ha ([4]; pre-emergence, Preemergence) of 30%. It also gave a pest or weed control at 8 g/ha ([5]; 8 g ai/ha Preemergence) of 10%, a pest or weed control at 16 g/ha ([5]; 16 g ai/ha Preemergence) of 70% and a pest or weed control at 31 g/ha ([5]; 31 g ai/ha Preemergence) of 80%. The pest or weed control at 125 g/ha ([5]; 125 g ai/ha Preemergence) was 98%, the pest or weed control at 62 g/ha ([5]; Preemergence) was 95% and the pest or weed control at 8 g/ha [6, 17] was 10%. For the same molecule, the pest or weed control at 16 g/ha [6, 18] was 10%, the pest or weed control at 31 g/ha [6, 19] was 15% and the pest or weed control at 62 g/ha [6, 20] was 20%. The pest or weed control at 125 g/ha [6, 21] was 20%, the pest or weed control at 8 g/ha [6, 22] was 0% and the pest or weed control at 16 g/ha [6, 23] was 90%. The pest or weed control at 31 g/ha [6, 24] was 98%, the pest or weed control at 62 g/ha [6, 25] was 100% and the pest or weed control at 125 g/ha [6, 26] was 100%. The pest or weed control at 8 g/ha [7, 17] was 0%, the pest or weed control at 16 g/ha ([7]; post-emergence, Postemergence) was 0% and the pest or weed control at 31 g/ha ([7]; post-emergence, Postemergence) was 0%. For the same molecule, the pest or weed control at 62 g/ha ([7]; post-emergence, 62 g ai/ha, Postemergence) was 15%, the pest or weed control at 125 g/ha ([7]; post-emergence, Postemergence) was 20% and the pest or weed control at 8 g/ha [7, 22] was 0%. For the same molecule, the pest or weed control at 16 g/ha ([7]; pre-emergence, Preemergence) was 0%, the pest or weed control at 31 g/ha ([7]; pre-emergence, Preemergence) was 0% and the pest or weed control at 125 g/ha ([7]; pre-emergence, Preemergence) was 40%. The pest or weed control at 62 g/ha ([7]; pre-emergence, Preemergence) was 20%, the pest or weed control at 8 g/ha [8, 17] was 35% and the pest or weed control at 16 g/ha [8, 18] was 50%. The pest or weed control at 31 g/ha [8, 19] was 40%, the pest or weed control at 62 g/ha [8, 20] was 60% and the pest or weed control at 125 g/ha [8, 21] was 80%. It also gave a pest or weed control at 8 g/ha [8, 22] of 0%, a pest or weed control at 16 g/ha [8, 23] of 0% and a pest or weed control at 31 g/ha [8, 24] of 20%. It also gave a pest or weed control at 125 g/ha [8, 26] of 70%, a pest or weed control at 62 g/ha ([8]; pre-emergence, Preemergence) of 60% and a pest or weed control at 8 g/ha ([9]; 8 g ai/ha Preemergence) of 0%. It also gave a pest or weed control at 16 g/ha ([9]; 16 g ai/ha Preemergence) of 0%, a pest or weed control at 31 g/ha ([9]; 31 g ai/ha Preemergence) of 10% and a pest or weed control at 125 g/ha ([9]; 125 g ai/ha Preemergence) of 40%. The pest or weed control at 62 g/ha ([9]; Preemergence) was 35%, the pest or weed control at 8 g/ha ([10]; 8 g ai/ha Preemergence) was 20% and the pest or weed control at 16 g/ha ([10]; 16 g ai/ha, Preemergence) was 25%. The pest or weed control at 31 g/ha ([10]; 31 g ai/ha, Preemergence) was 50%, the pest or weed control at 125 g/ha ([10]; 125 g ai/ha, Preemergence) was 100% and the pest or weed control at 62 g/ha ([10]; Preemergence) was 80%. For the same molecule, the pest or weed control at 8 g/ha [11, 17] was 0%, the pest or weed control at 16 g/ha [11, 18] was 0% and the pest or weed control at 31 g/ha [11, 19] was 5%. It also gave a pest or weed control at 62 g/ha [11, 20] of 10%, a pest or weed control at 125 g/ha [11, 21] of 10% and a pest or weed control at 8 g/ha [11, 22] of 0%. The pest or weed control at 16 g/ha [11, 23] was 0%, the pest or weed control at 31 g/ha [11, 24] was 0% and the pest or weed control at 62 g/ha [11, 25] was 0%. For the same molecule, the pest or weed control at 125 g/ha [11, 26] was 0%, the pest or weed control at 8 g/ha [12, 17] was 20% and the pest or weed control at 16 g/ha [12, 18] was 20%. For the same molecule, the pest or weed control at 31 g/ha [12, 19] was 35%, the pest or weed control at 62 g/ha [12, 20] was 35% and the pest or weed control at 125 g/ha [12, 21] was 35%. The pest or weed control at 8 g/ha [12, 22] was 0%, the pest or weed control at 16 g/ha [12, 23] was 0% and the pest or weed control at 31 g/ha [12, 24] was 30%. It also gave a pest or weed control at 62 g/ha [12, 25] of 30%, a pest or weed control at 125 g/ha [12, 26] of 30% and a pest or weed control at 8 g/ha ([13]; 8 g ai/ha Preemergence) of 0%. It also gave a pest or weed control at 16 g/ha ([13]; 16 g ai/ha Preemergence) of 35%, a pest or weed control at 31 g/ha ([13]; 31 g ai/ha Preemergence) of 60% and a pest or weed control at 125 g/ha ([13]; 125 g ai/ha Preemergence) of 98%. It also gave a pest or weed control at 62 g/ha ([13]; Preemergence) of 98%, a pest or weed control at 8 g/ha ([14]; 8 g ai/ha Preemergence) of 0% and a pest or weed control at 16 g/ha ([14]; 16 g ai/ha Preemergence) of 0%. It also gave a pest or weed control at 31 g/ha ([14]; 31 g ai/ha Preemergence) of 0%, a pest or weed control at 125 g/ha ([14]; 125 g ai/ha Preemergence) of 35% and a pest or weed control at 62 g/ha ([14]; Preemergence) of 10%. For the same molecule, the pest or weed control at 8 g/ha [15, 17] was 5%, the pest or weed control at 16 g/ha [15, 18] was 5% and the pest or weed control at 31 g/ha [15, 19] was 5%. The pest or weed control at 62 g/ha [15, 20] was 5%, the pest or weed control at 125 g/ha [15, 21] was 15% and the pest or weed control at 8 g/ha [15, 22] was 0%. The pest or weed control at 16 g/ha [15, 23] was 70%, the pest or weed control at 31 g/ha [15, 24] was 35% and the pest or weed control at 125 g/ha [15, 26] was 100%. The pest or weed control at 62 g/ha ([15]; pre-emergence, Preemergence) was 98%, the pest or weed control at 8 g/ha ([16]; 8 g ai/ha Preemergence) was 0% and the pest or weed control at 16 g/ha ([16]; 16 g ai/ha Preemergence) was 25%. For the same molecule, the pest or weed control at 31 g/ha ([16]; 31 g ai/ha Preemergence) was 80%, the pest or weed control at 125 g/ha ([16]; 125 g ai/ha Preemergence) was 100% and the pest or weed control at 62 g/ha ([16]; Preemergence) was 100%.
